11 compounds from ChEMBL document CHEMBL1201862, “PubChem BioAssay data set” (2004) can be followed below.

Among the test systems are OVCAR-3; MDA-MB-435; Malme-3M; SK-MEL-28; NCI-H23; COLO 205; HCC 2998; NCI-H522; MCF7; HL-60; HOP-92; UACC-62; OVCAR-5; MDA-N; SK-MEL-5; SN12C; SF-268; A498; PC-3; HOP-62.
Assay in all cases: inhibition of tumour cell growth, NCI panel, 48 h

Structures are written as SMILES.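 Following 48 hours of exposure in 96-well plates, responses at five concentrations were used to interpolate endpoints linearly. At the GI50, growth is halved.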 Calls of active or inactive are those of the source. Rule as the data show it: active = GI50 up to about 1.1 µM and inactive = higher.

Take `CCOC(=O)c1c(SCCN2CCOCC2)n(-c2ccccc2)c(=S)n(-c2ccccc2)c1=O`: the GI50 in the experiment on OVCAR-3 is 49.2 µM (inactive); with MDA-MB-435, 47.2 µM (inactive); with Malme-3M, > 100 µM (inactive); in the experiment on SK-MEL-28 it was 24 µM (inactive); in the experiment with NCI-H23, 32.4 µM (inactive); with COLO 205 it was > 100 µM (inactive). For the same compound, the GI50 with HCC 2998 is > 100 µM (inactive); in the experiment with NCI-H522 it was 43.7 µM (inactive); in the experiment with MCF7, 21.2 µM (inactive); with HL-60, 20.8 µM (inactive); in the experiment with HOP-92 it was 51.6 µM (inactive); with UACC-62, 49.8 µM (inactive). In addition, the GI50 in the experiment with OVCAR-5 is > 100 µM (inactive); with MDA-N, 36.5 µM (inactive); in the experiment on SK-MEL-5, 27.7 µM (inactive); in the experiment with SN12C, > 100 µM (inactive); in the experiment on SF-268 it was 37.4 µM (inactive).
Consider `Cc1ccc2c3c1O[C@H]1c4[nH]c5ccccc5c4C[C@@]4(O)[C@@H](C2)N(C)CC[C@]314`, for which the GI50 is 14.5 µM (inactive) in the experiment with MDA-MB-435; 13.9 µM (inactive) with Malme-3M; 17 µM (inactive) in the experiment on A498; 18.4 µM (inactive) in the experiment on NCI-H23; 14.4 µM (inactive) with COLO 205; 19.1 µM (inactive) in the experiment with NCI-H522. Moreover, the GI50 in the experiment on MCF7 was 16 µM (inactive); in the experiment on HL-60, 14.6 µM (inactive); in the experiment with HOP-92, 9.08 µM (inactive); with UACC-62, 16.6 µM (inactive); with OVCAR-5, 20.7 µM (inactive); in the experiment on MDA-N, 17.8 µM (inactive). Besides, the GI50 was 14.5 µM (inactive) in the experiment with SK-MEL-5, 18.2 µM (inactive) in the experiment with SN12C, 17.3 µM (inactive) with PC-3 and 17.1 µM (inactive) with SF-268.
`O=C(c1ccccc1)c1c(C(F)(F)F)[n+]([O-])c2ccccc2[n+]1[O-]`: the GI50 with OVCAR-3 is 0.343 µM (active); with MDA-MB-435 it was 0.798 µM (active); with Malme-3M, 2 µM (inactive); in the experiment with A498, 2.19 µM (inactive); with SK-MEL-28, 1.91 µM (inactive); in the experiment on NCI-H23, 1.43 µM (inactive). Besides, the GI50 with COLO 205 was 1.18 µM (inactive); in the experiment on HCC 2998, 1.25 µM (inactive); with HOP-62, 1.08 µM (active); in the experiment with NCI-H522 it was 0.459 µM (active); in the experiment with MCF7 it was 0.652 µM (active); in the experiment on HL-60, 0.205 µM (active). Further, the GI50 in the experiment with HOP-92 was 0.207 µM (active); with UACC-62 it was 1.68 µM (inactive); in the experiment on OVCAR-5, 1.31 µM (inactive); in the experiment on SK-MEL-5, 1.87 µM (inactive); in the experiment on SN12C, 0.951 µM (active); in the experiment on PC-3 it was 0.29 µM (active). In addition, in the experiment with SF-268, the GI50 was 0.995 µM (active).
For `O=C(Cn1nnc(-c2ccccc2)n1)N/N=C/c1cn(Cc2ccc(Cl)cc2Cl)c2ccccc12`, the GI50 was > 100 µM (inactive) in the experiment with OVCAR-3; > 100 µM (inactive) with MDA-MB-435; 75.5 µM (inactive) in the experiment with A498; > 100 µM (inactive) in the experiment on NCI-H23; > 100 µM (inactive) in the experiment on COLO 205; > 100 µM (inactive) in the experiment with HOP-62. In addition, the GI50 in the experiment on NCI-H522 is 43.1 µM (inactive); with MCF7, > 100 µM (inactive); with HL-60, 39.6 µM (inactive); in the experiment with HOP-92, > 100 µM (inactive); with UACC-62, > 100 µM (inactive); in the experiment with OVCAR-5 it was > 100 µM (inactive). The GI50 with MDA-N is > 100 µM (inactive); in the experiment with SK-MEL-5, > 100 µM (inactive); in the experiment on SN12C, > 100 µM (inactive); with PC-3 it was > 100 µM (inactive); with SF-268, 31.8 µM (inactive).
On to `CC(=O)OC1C2CCC3C(C)(O)C4CC(O)C(C)(C)C4(O)C(O)CC13CC2(C)O` (stereo unspecified), for which the GI50 in the experiment on OVCAR-3, in the experiment with A498, with NCI-H23, in the experiment on COLO 205, in the experiment on HCC 2998 and with HOP-62 was > 100 µM (inactive) throughout. Besides, the GI50 in the experiment on NCI-H522, with MCF7, with HL-60, in the experiment on HOP-92, with UACC-62 and in the experiment with OVCAR-5 was > 100 µM (inactive) each time. The GI50 with MDA-N, in the experiment with SK-MEL-5, in the experiment on SN12C, in the experiment on PC-3 and with SF-268 was > 100 µM (inactive) in each case.
As for `O=C1C=C2CC[C@H]3[C@@H]4CC[C@H](OC(=O)c5cccc6cc7ccccc7nc56)[C@H]4CC[C@@H]3[C@H]2CC1`, the GI50 in the experiment with OVCAR-3 is 39.5 µM (inactive); with MDA-MB-435, > 100 µM (inactive); in the experiment on Malme-3M it was > 100 µM (inactive); in the experiment on A498 it was > 100 µM (inactive); with SK-MEL-28, > 100 µM (inactive); in the experiment on NCI-H23, > 100 µM (inactive). In addition, the GI50 in the experiment with COLO 205 was > 100 µM (inactive); with HOP-62 it was > 100 µM (inactive); in the experiment on NCI-H522, 25.5 µM (inactive); in the experiment on MCF7, > 100 µM (inactive); in the experiment with HL-60, > 100 µM (inactive); in the experiment on UACC-62, > 100 µM (inactive). The GI50 in the experiment on OVCAR-5, in the experiment on MDA-N, in the experiment with SK-MEL-5, with SN12C, with PC-3 and with SF-268 was > 100 µM (inactive) each time.
Turning to `COC12OC3(C4OC41)C(C(=O)O[C@H]3CO[Si](C)(C)C(C)(C)C)C2S(=O)(=O)c1ccccc1` (stereo partly specified), the GI50 in the experiment on OVCAR-3 is > 100 µM (inactive); in the experiment with MDA-MB-435 it was > 4.65 µM (inactive); with Malme-3M, > 41.8 µM (inactive); in the experiment with SK-MEL-28 it was 3.48 µM (inactive); in the experiment on NCI-H23 it was > 100 µM (inactive); in the experiment with COLO 205, 21.9 µM (inactive). The GI50 in the experiment with HCC 2998 was > 100 µM (inactive); in the experiment with HOP-62, > 4.65 µM (inactive); with NCI-H522, 17.1 µM (inactive); in the experiment on MCF7, 4.1 µM (inactive); in the experiment on HL-60, < 0.01 µM (active); in the experiment with HOP-92, 3.27 µM (inactive). In addition, the GI50 in the experiment on UACC-62, in the experiment with OVCAR-5, in the experiment on SN12C and with PC-3 was > 4.65 µM (inactive) each time.
Consider `COC(=O)C1=C(O)C(C(=O)OC)[C@]2(O)[C@H](C(=O)OC)[C@H]1C[C@@H](c1ccc(OC)cc1)[C@H]2C(=O)OC` (stereo partly specified), for which the GI50 is 5.97 µM (inactive) in the experiment on MDA-MB-435; 17.7 µM (inactive) in the experiment with Malme-3M; 7.74 µM (inactive) in the experiment on A498; 30.4 µM (inactive) in the experiment with SK-MEL-28; 23.6 µM (inactive) in the experiment on NCI-H23; 35.2 µM (inactive) in the experiment on COLO 205. The GI50 is 17.8 µM (inactive) with HCC 2998; 29.9 µM (inactive) in the experiment with HOP-62; 2.36 µM (inactive) with NCI-H522; 20.2 µM (inactive) in the experiment with MCF7; 59.7 µM (inactive) with HOP-92; 12.1 µM (inactive) in the experiment on UACC-62. Further, the GI50 in the experiment on OVCAR-5 was 20.7 µM (inactive); in the experiment on MDA-N, 8.71 µM (inactive); in the experiment with SK-MEL-5, 13.7 µM (inactive); in the experiment on SN12C it was 21.5 µM (inactive); with SF-268 it was 19.6 µM (inactive).
In the case of `N#Cc1c(-c2cccc(Cl)c2)cc(-c2ccc(Cl)cc2)nc1N`, the GI50 is 23.7 µM (inactive) in the experiment with OVCAR-3; 19.1 µM (inactive) in the experiment with MDA-MB-435; 28.1 µM (inactive) in the experiment on Malme-3M; 17.5 µM (inactive) in the experiment with NCI-H23; 14.6 µM (inactive) in the experiment with COLO 205; 17.3 µM (inactive) in the experiment with HOP-62. In addition, the GI50 in the experiment with NCI-H522 was 15.1 µM (inactive); in the experiment with MCF7, 16.3 µM (inactive); with HL-60, 38.1 µM (inactive); with HOP-92, 10.9 µM (inactive); in the experiment on UACC-62 it was 16.5 µM (inactive); in the experiment on OVCAR-5 it was 21.7 µM (inactive). In addition, the GI50 in the experiment with MDA-N was 20 µM (inactive); in the experiment with SK-MEL-5, 16.1 µM (inactive); in the experiment with SN12C it was 17.3 µM (inactive); in the experiment with PC-3 it was 17.2 µM (inactive); with SF-268 it was 18.5 µM (inactive).
As for `CO[C@H]1C=C[C@]23c4cc5c(cc4CN(CC2O)[C@@H]3C1)OCO5` (stereo partly specified), the GI50 with OVCAR-3 is 1.9 µM (inactive); in the experiment with MDA-MB-435 it was 2.81 µM (inactive); with Malme-3M, 2.15 µM (inactive); with A498, 2.06 µM (inactive); in the experiment with SK-MEL-28, 2.17 µM (inactive); in the experiment on NCI-H23, 4.49 µM (inactive). In addition, the GI50 with COLO 205 was 2.58 µM (inactive); in the experiment with HCC 2998 it was 2.58 µM (inactive); in the experiment with NCI-H522 it was 1.72 µM (inactive); in the experiment on HL-60, 0.179 µM (active); with HOP-92 it was 0.336 µM (active); with UACC-62, 2.18 µM (inactive). The GI50 with OVCAR-5 was 5.47 µM (inactive); in the experiment on MDA-N it was 3.93 µM (inactive); in the experiment on SK-MEL-5, 2.29 µM (inactive); in the experiment with SN12C it was 3.3 µM (inactive); in the experiment with PC-3 it was 2.39 µM (inactive); in the experiment with SF-268, 2.17 µM (inactive).
`CC1CCCC2=C1C(c1ccc(Cl)cc1)n1c(s/c(=C\c3ccc(Cl)cc3)c1=O)=N2` (stereo unspecified): the GI50 in the experiment on MDA-MB-435, in the experiment on A498, in the experiment with SK-MEL-28, in the experiment on COLO 205, with HOP-62 and in the experiment on MCF7 was > 100 µM (inactive) each time. The GI50 in the experiment with HOP-92, in the experiment on UACC-62, with OVCAR-5, in the experiment on MDA-N, in the experiment on SK-MEL-5 and in the experiment on SN12C was > 100 µM (inactive) each time. In addition, the GI50 in the experiment with PC-3 and in the experiment on SF-268 was > 100 µM (inactive) each time.
